Experimental data taken from US20130053336A1, “TREATMENT OF CHLAMYDIACEAE INFECTIONS BY MEANS OF BETA-LACTAMS” (priority 2010, published 2013).
≈ marks a conversion by molar mass, not a printed value. Where a name gives a salt, the structure may show the parent alone. Read-outs that look alike come from different tables or passages of the source.

How the values were obtained:
Format in all cases: cell-based
[1] = system: Cells Infected with Chlamydia trachomatis serovar L2; assay: Cytotoxicity of β-lactams
Experimental: (§1) It was first sought to verify whether other molecules of the β-lactam family could induce in vitro the same abnormal and noninfectious forms of Chlamydia trachomatis as that produced in the presence of penicillin G. Titration experiments were performed on the infectious ability of bacteria from infected cells treated with different β-lactams. Cytotoxicity and minimum bactericidal concentration (MBC) were determined for each of these molecules. It was also verified whether all of these β-lactams have bactericidal action on persistent forms of Chlamydia trachomatis produced in vitro under the effect of IFN-γ.

[2] = system: Chlamydia trachomatis serovar L2; assay: Minimum bactericidal concentration (titration of infectious ability of bacteria from treated infected cells)
Experimental: as §1

[3] = system: Chlamydia trachomatis L2 serovar 16S rRNA; assay: 16S rRNA expression by RT-PCR; settings: 100 hpi
Text: HeLa cells were infected with the Chlamydia trachomatis L2 serovar and treated or not treated with penicillin G at 3 hpi. At 100 hpi, the cells were collected and the RNA extracted carefully to avoid DNA contamination. Half of the isolated RNA was used for reverse transcription. The RNA and cDNA were amplified by PCR with primers for 16S (bacterial) and 18S (eukaryotic) rRNA in order to study bacterial activity and to verify cDNA quality and quantity. PCR of the RNA is used to verify the absence of DNA contamination. It also indicates the absence of contaminant in the PCR. […] Roughly 1×10^5 HeLa cells were infected and exposed or not exposed to penicillin G, as described above. At 100 hpi, total RNA were isolated using the RNeasy Plus Mini Kit (Qiagen, Hilden, Germany). The samples were treated with DNase I for 1 hour at 37° C. The enzyme was then denatured at 70° C. for 10 min. The RNA were reverse-transcribed into cDNA using random hexamer primers and AffinityScript Multiple Temperature Reverse Transcriptase (Agilent, Santa Clara, Calif., USA) and by following the manufacturer's instructions for RT-PCR. cDNA and RNA were amplified by PCR with Tag Polymerase (Invitrogen, Carlsbad, Calif., USA) in order to verify the absence of DNA contamination. The primers used to amplify 16S rRNA are: A semi-quantitative analysis of the PCR products was carried out by agarose gel electrophoresis and UV detection.

[4] = system: Chlamydia trachomatis serovar L2; assay: Development and morphology of inclusions in infected HeLa cells (microscopy); settings: infected HeLa cells, videomicroscopy / culture for 4 days
Experimental: HeLa cells were infected with Chlamydia trachomatis serovar L2 and treated with IFN-γ (100 ng/ml), penicillin G (100 U/ml) or gentamicin ([…]). At various times after infection (hours post-infection (hpi)), the cells were fixed and stained with an antibody against Chlamydia sp. (green in the original figure) and with Hoechst (blue in the original figure). The infected HeLa cells treated with penicillin G have abnormal bodies that grow and that are phenotypically quite different from those formed during treatment with IFN-γ. The bodies formed with penicillin G are appreciably different from “classic” persistent bodies. To examine the effects of penicillin G on cell infection with Chlamydia, the host cells were cultivated up to 70% confluence without antibiotics, and then were infected with C. trachomatis strain […]. muridarum at 1 IFU. The infections were carried out at 37° C. for 90 minutes with centrifugation, followed by a washing of extracellular bacteria. At 3 hpi, after the washings, the culture medium was replaced with medium containing either 25 μg/ml gentamicin or 1-100 IU/ml penicillin G. At regular intervals after treatment with penicillin G, the cultures were either fixed in 4% neutral buffered PFA for 30 minutes to be prepared for confocal microscopy, or collected to determine the infectivity of the progeny bacteria, according to the previously described method (Verbeke, P. et al. PLoS Pathog 2:e45, 2006). HeLa cells cultured in monolayers on slides were infected with serovar L2 with an IFU of 1, as described above (Verbeke, P. et al. PLoS Pathog 2:e45, 2006). Three hours after the infection, the medium was removed and replaced with culture medium containing 500 IU/ml (final concentration) recombinant human IFN-γ.

[5] = system: Chlamydia trachomatis inclusions; assay: Fusion of lysosomes with inclusions (cathepsin D, LysoTracker, confocal microscopy); settings: HeLa, 24 hpi
[6] = minimum bactericidal concentration, read-out: MBC
[7] = second line of the MBC cell, read-out: MBC, bound in parentheses below the value
[8] = printed as a concentration bound

Molecule | Cytotox. ([1]; given as 0) | MBC [2, 6] [µM] | MBC [2, 7] [µM] | further results
CC1(C)S[C@@H]2[C@H](NC(=O)[C@H](N)c3ccc(O)cc3)C(=O)N2[C@H]1C(=O)O [Amoxicillin trihydrate] | 0 | 0.3 | > 0.1 | –
CC1=C(C(=O)O)N2C(=O)[C@@H](NC(=O)[C@H](N)c3ccc(O)cc3)[C@H]2SC1 [Cefadroxil] | 0 | 10 (≈ 3.63 µg/mL) | > 3 | –
C=CC1=C(C(=O)O)N2C(=O)[C@@H](NC(=O)/C(=N\OCC(=O)O)c3csc(N)n3)[C@H]2SC1 [Cefixime trihydrate] | – | 300 | > 100 | Cytotox. [1, 8]: >400 µM
Cc1onc(-c2ccccc2Cl)c1C(=O)N[C@@H]1C(=O)N2[C@@H]1SC(C)(C)[C@@H]2C(=O)O [Cloxacillin sodium salt hydrate] | 0 | 3 | > 1 | –
C[C@@H](O)[C@H]1C(=O)N2C(C(=O)O)=C(SCCN=CN)C[C@H]12 [Imipenem monohydrate] | 0 | 300 | > 100 | –
CC1(C)S[C@@H]2[C@H](/N=C/N3CCCCCC3)C(=O)N2[C@H]1C(=O)O [Mecillinam] | 0 | 3 (≈ 0.976 µg/mL) | > 1 | –
CC1(C)S[C@@H]2[C@H](NC(=O)COc3ccccc3)C(=O)N2[C@H]1C(=O)O [Penicillin V potassium salt] | 0 | 0.3 | > 0.1 | –
O=C(O)[C@H]1/C(=C/CO)O[C@@H]2CC(=O)N21 [Potassium clavulanate] | – | 1 | > 0.3 | Cytotox. [1, 8]: >50 µM
CC1(C)[C@H](C(=O)O)N2C(=O)C[C@H]2S1(=O)=O [Sulbactam sodium] | – | – | – | MBC [2]: 10 µM; MBC ([2]; read-out: MBC, bound in parentheses below the value): > 3 µM
C[C@]1(Cn2ccnn2)[C@H](C(=O)O)N2C(=O)C[C@H]2S1(=O)=O [Tazobactam sodium salt] | 0 | 30 | > 10 | –
gentamicin | – | – | – | 16S rRNA expression in infected cells [3]: amplified
IFN-γ: Recombinant human IFN-γ, a well-known inducer of persistence (protein, UniProt P01579 24-161, looked up) Interferon gamma: QDPYVKEAENLKKYFNAGHSDVADNGTLFLGILKNWKEESDRKIMQSQIVSFYFKLFKNFKDDQSIQKSVETIKEDMNVKFFNSNKKKRDDFEKLTNYSVTDLNVQRKAIHELIQVMAELSPAAKTGKRKRSQMLFRG | – | – | – | growth of the bacterial inclusions [4]: remains constant; localization of cathepsin D in inclusions [5]: excluded from normal and persistent inclusions; 16S rRNA expression in infected cells [3]: amplified
